Assay type in all cases: toxicity, cell-based
Series [1] has as its system U2OS. Nature of the series: Incucyte cell viability with U2OS. The conditions noted are these: human, 10 µM, compound concentration 10 uM.
Series [2] relates to HEK-293T. Nature of the series: Incucyte cell viability with HEK293T. The conditions noted are these: human, 10 µM, compound concentration 10 uM.
Series [3] deals with Fibroblast. The series can be described thus: Incucyte cell viability with human fibroblast. The conditions noted are these: 10 µM, compound concentration 10 uM.
Where [4] appears, read: 0 h, replicate number 1, timepoint 0 hours.
The mark [5] stands for this setting: 6 h, replicate number 1, timepoint 6 hours.
[6] abbreviates: 12 h, replicate number 1, timepoint 12 hours.
The mark [7] stands for this setting: 12 h, replicate number 2, timepoint 12 hours.
[8] abbreviates: 18 h, replicate number 1, timepoint 18 hours.
Where [9] appears, read: 18 h, replicate number 2, timepoint 18 hours.
Where [10] appears, read: 24 h, replicate number 1, timepoint 24 hours.
[11] abbreviates: 24 h, replicate number 2, timepoint 24 hours.
The mark [12] stands for this setting: 0 h, replicate number 2, timepoint 0 hours.
Setting [13] is: 6 h, replicate number 2, timepoint 6 hours.

From ChEMBL document CHEMBL5058564, “EUbOPEN Chemogenomics Library 2 (Incucyte)” (2022) come the findings set out here.

Structures are written as SMILES.
Note: unitless GR value; below 1 slowed growth and below 0 cell loss.

With `CO[C@H]1CNC[C@@H](OCC2CCC(F)(F)CC2)[C@@H]1Nc1ncc(-c2cncc(C)c2)c2cc(C)c(=O)[nH]c12`, the “Growth Rate” value was -0.36 in series [1] (setting [4]); 0.62 in series [1] (setting [5]); 0.39 in series [1] (setting [6]); 0.98 in series [1] (setting [7]); 0.7 in series [1] (setting [8]); 0.97 in series [1] (setting [9]). Moreover, the “Growth Rate” value in series [1] (setting [10]) was 0.53; in series [1] (setting [11]) it was 1; in series [2] (setting [12]) it was 0.51; in series [2] (setting [6]), 0.87; in series [2] (setting [8]), 0.84; in series [2] (setting [10]), 0.85. In addition, the “Growth Rate” value in series [3] (setting [4]) is 0.72; in series [3] (setting [12]) it was 0.95; in series [3] (setting [5]), 0.63; in series [3] (setting [13]) it was 0.24; in series [3] (setting [6]), 0.16; in series [3] (setting [7]), 0.53. In addition, the “Growth Rate” value turned out to be 0.28 in series [3] (setting [8]), 0.64 in series [3] (setting [9]), 0.1 in series [3] (setting [10]) and 0.73 in series [3] (setting [11]).
On to `CSCC[C@H](NC(=O)[C@@H]1CCCN1C(=O)CNC(=O)[C@H](CCCCN)NC(=O)[C@H](Cc1cnc[nH]1)NC(=O)[C@H](CO)NC(=O)[C@H](CC(C)C)NC(=O)[C@H](CCCNC(=N)N)NC(=O)[C@@H]1CCCN1C(=O)[C@H](CCCNC(=N)N)NC(=O)[C@@H](N)CCC(N)=O)C(=O)N1CCC[C@H]1C(=O)N[C@@H](Cc1ccccc1)C(=O)O`, for which the “Growth Rate” value in series [1] (setting [12]) is recorded as -0.88; in series [1] (setting [13]) it was 0.73; in series [1] (setting [9]), 0.91; in series [1] (setting [11]), 0.94; in series [2] (setting [4]) it was 0.46; in series [2] (setting [12]), 0.65. In addition, the “Growth Rate” value in series [2] (setting [8]) worked out at 0.97; in series [2] (setting [10]), 0.74; in series [3] (setting [4]) it was 0.13; in series [3] (setting [12]), 0.64; in series [3] (setting [7]) it was 0.8; in series [3] (setting [10]), 0.88.
Consider `Oc1c(CN2CCN(c3ccccn3)CC2)cc(Cl)c2cccnc12`, for which the “Growth Rate” value was 0.03 in series [1] (setting [4]); -0.6 in series [1] (setting [12]); 0.19 in series [1] (setting [5]); -0.14 in series [1] (setting [13]); 0.01 in series [1] (setting [6]); 0.21 in series [1] (setting [7]). Also, the “Growth Rate” value is reported as -0.04 in series [1] (setting [8]); 0.1 in series [1] (setting [9]); -0.07 in series [1] (setting [10]); 0.08 in series [1] (setting [11]); -1 in series [2] (setting [12]); -0.48 in series [2] (setting [5]). Moreover, the “Growth Rate” value in series [2] (setting [6]) is -0.03; in series [2] (setting [8]), 0.11; in series [2] (setting [10]), 0.17; in series [3] (setting [10]) it was 0.65; in series [3] (setting [11]) it was 0.89.
For the compound `CCCCCC(O)/C=C/[C@H]1C(=O)CC(O)C1C/C=C\CCCC(=O)O` (stereo partly specified), the “Growth Rate” value in series [1] (setting [4]) is on record as -0.23; in series [1] (setting [12]), 0.05; in series [1] (setting [5]), 0.59; in series [1] (setting [6]), 0.59; in series [1] (setting [7]), 0.84; in series [1] (setting [8]) it was 0.66. The “Growth Rate” value in series [1] (setting [9]) was 0.78; in series [1] (setting [10]), 0.72; in series [1] (setting [11]), 0.87; in series [2] (setting [4]) it was 0.99; in series [2] (setting [5]), 0.68; in series [2] (setting [6]), 0.59. The “Growth Rate” value in series [2] (setting [8]) is 0.69; in series [2] (setting [10]), 0.58; in series [3] (setting [4]) it was 0.39; in series [3] (setting [12]), -0.28; in series [3] (setting [5]), -0.61; in series [3] (setting [6]) it was 0.36. For the same compound, the “Growth Rate” value was 0.47 in series [3] (setting [8]) and 0.54 in series [3] (setting [10]).
